Laboratory results from BindingDB's records for doi:10.1021/acs.jmedchem.6b00965 (University of Iowa, 2017).

Assays:
[1] = Activation of BTN3A1 in human Vgamma9Vdelta2 T cells assessed as induction of T effector cells mediated K562 cell lysis preincubated with K562 cells for 2 hrs followed by T effector cell addition measured after 4 hrs
[2] = Activation of BTN3A1 in human Vgamma9Vdelta2 T cells assessed as induction of interleukin 2 stimulated cell proliferation treated for 72 hrs measured on day 11 post last treatment by flow cytometry
[3] = biological target: T1, Butyrophilin subfamily 3 member A1 (Homo sapiens, UniProt O00481); experiment: Activation of BTN3A1 in human Vgamma9Vdelta2 T cells assessed as induction of T effector cells mediated K562 cell lysis preincubated with K562 cells for 2 hrs followed by T effector cell addition measured after 4 hrs
[4] = biological target: T1, Butyrophilin subfamily 3 member A1; experiment: Activation of BTN3A1 in human Vgamma9Vdelta2 T cells assessed as induction of interleukin 2 stimulated cell proliferation treated for 72 hrs measured on day 11 post last treatment by flow cytometry

T1 sequence (O00481 whole entry): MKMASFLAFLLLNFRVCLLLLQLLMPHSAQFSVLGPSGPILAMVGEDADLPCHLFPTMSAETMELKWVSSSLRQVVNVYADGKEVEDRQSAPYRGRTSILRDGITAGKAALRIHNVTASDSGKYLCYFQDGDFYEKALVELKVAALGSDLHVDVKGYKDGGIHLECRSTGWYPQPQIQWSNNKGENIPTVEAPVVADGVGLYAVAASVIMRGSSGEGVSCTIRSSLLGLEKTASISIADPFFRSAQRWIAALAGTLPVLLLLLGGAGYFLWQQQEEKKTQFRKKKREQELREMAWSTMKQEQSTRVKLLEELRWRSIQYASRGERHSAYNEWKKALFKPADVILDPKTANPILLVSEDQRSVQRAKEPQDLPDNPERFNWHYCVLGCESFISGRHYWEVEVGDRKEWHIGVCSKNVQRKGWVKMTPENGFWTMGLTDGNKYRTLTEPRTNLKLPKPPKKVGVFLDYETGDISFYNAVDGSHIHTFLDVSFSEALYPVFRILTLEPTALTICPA

| Compound | EC50 [1] | EC50 [2] | EC50 [3] | EC50 [4] |
| --- | --- | --- | --- | --- |
| CC(=CCCP(=O)(O)CP(=O)(O)O)CO | 41 µM | – | – | – |
| CC(C)=CCCP(=O)(CP(=O)(OCOC(=O)C(C)(C)C)OCOC(=O)C(C)(C)C)OCOC(=O)C(C)(C)C (stereo not drawn) | 7.3 µM | > 100 µM | – | – |
| COP(=O)(CC/C=C(\C)CO)CP(=O)(OC)OC (stereo not drawn) | > 100 µM | > 100 µM | – | – |
| C/C(=C\CCP(=O)(CP(=O)(OCOC(=O)C(C)(C)C)OCOC(=O)C(C)(C)C)OCOC(=O)C(C)(C)C)CO (stereo not drawn) | 0.28 µM | – | – | – |
| [C]C([C])=[C][C][C]P(=O)(O)[C]P(=O)(O)O | – | – | > 100 µM | > 100 µM |
